{
  "source": "patent US10272078B2",
  "about": "“Crystalline forms of a prolyl hydroxylase inhibitor” (FibroGen, Inc., priority 2012, dated 2019)",
  "key": {"[1]": {"assay": "Moisture sorption", "format": "physicochemical", "conditions": "between 5% to 95% relative humidity; lost on desorption"}, "[2]": {"assay": "Solid form stability on storage (XRPD)", "format": "physicochemical", "conditions": "for XRPD pattern after storage: 40° C./75% RH", "text": "X-Ray Powder Diffraction patterns were collected on a Bruker AXS C2 GADDS diffractometer using Cu Kα radiation (40 kV, 40 mA), automated XYZ stage, laser video microscope for auto-sample positioning and a HiStar 2-dimensional area detector. X-ray optics consists of a single Gobel multilayer mirror coupled with a pinhole collimator of 0.3 mm. […] The beam divergence, i.e. the effective size of the X-ray beam on the sample, was approximately 4 mm. […] Typically the sample would be exposed to the X-ray beam for 120 seconds. The software used for data collection was GADDS for WNT 4.1.16 and the data were analyzed and presented using Diffrac Plus EVA v11.0.0.2 or v13.0.0.2. Alternatively, X-Ray Powder Diffraction patterns were collected on a Bruker D8 diffractometer using Cu Kα radiation (40 kV, 40 mA), θ-2θ goniometer, and divergence of V4 and receiving slits, a Ge monochromator and a Lynxeye detector. […] The software used for data collection was Diffrac Plus XRD Commander v2.5.0 and the data were analyzed and presented using Diffrac Plus EVA v11.0.0.2 or v13.0.0.2. Samples were run under ambient conditions as flat plate specimens using powder as received. The sample was gently packed into a cavity cut into polished, zero-background (510) silicon wafer. The sample was rotated in its own plane during analysis. The details of the data collection are: • Angular range: 2 to 42° 2θ • Step size: 0.05° 2θ • Collection time: 0.5 s/step • Analysis duration: 7 minutes Differential Scanning Calorimetry (DSC)"}},
  "data": [
    {"compound": "Cc1nc(C(=O)NCC(=O)O)c(O)c2ccc(Oc3ccccc3)cc12", "note": "[Compound A Form A, [(4-hydroxy-1-methyl-7-phenoxy-isoquinoline-3-carbonyl)-amino]-acetic acid]", "values": [
      {"measurement": "moisture sorption weight gain", "setting": "[1]", "result": "approximately 0.2%"}
    ]},
    {"compound": "Cc1nc(C(=O)NCC(=O)O)c(O)c2ccc(Oc3ccccc3)cc12.NCCO", "note": "[Compound A ethanolamine salt, [(4-hydroxy-1-methyl-7-phenoxy-isoquinoline-3-carbonyl)-amino]-acetic acid ethanolamine salt]", "values": [
      {"measurement": "XRPD pattern after storage", "setting": "[2]", "result": "Pattern 3 was observed"}
    ]},
    {"compound": "[(4-hydroxy-1-methyl-7-phenoxy-isoquinoline-3-carbonyl)-amino]-acetic acid diethanolamine salt [Compound A diethanolamine salt]", "values": [
      {"measurement": "XRPD pattern after storage", "setting": "[2]", "result": "Pattern 2 was observed"}
    ]},
    {"compound": "[(4-hydroxy-1-methyl-7-phenoxy-isoquinoline-3-carbonyl)-amino]-acetic acid hemihydrate [Compound A Form B]", "values": [
      {"measurement": "change of crystalline pattern on storage", "setting": "[2]; 25° C./96% RH for twelve days", "result": "reverting to Form A"},
      {"measurement": "change of crystalline form on storage (high resolution XRPD)", "setting": "[2]; ambient temperature, a full month (32 days)", "result": "almost completely reverted to anhydrous Form A"}
    ]}
  ]
}
